The text below walks through data of patent publication US4322439A, “ω-[2-(N-Lower alkyl-benzamido)-phenyl]-alkanoic acids, their use, and medicaments containing them” (BYK Gulden Lomberg Chemische Fabrik GmbH, priority 1978, dated 1982).

Molecules are shown by their SMILES. Where two headings read alike, the source gives them in different places.

Series [1] relates to fasting, metabolically healthy rats. In words: Blood glucose determination after single oral application (fasting, metabolically healthy rats). As to conditions: for A: Change of the blood glucose concentration (maximal, with reference to control animals): single oral administration 0.6 to 1.0 mmole/kg, maximal change within 24 hours; for ED50: read-out: B: ED50 (dose which effects a lowering of the blood glucose concentration by at least 15% in 50% of the animals). The series is classed as in vivo, Sprague-Dawley rats. The protocol: In Table I there are reproduced investigations of the influence of representatives of the compounds according to the invention on the blood glucose concentration of fasting, metabolically healthy rats after single oral administration of substance of 0.6 to 1.0 mmole/kg body weight within 24 hours. Column A states in each case the maximal lowering in % with reference to the control group within 24 hours after application of the compounds.
1. Blood Glucose Determination After Single Oral Application
Young male Sprague-Dawley rats (body weight 160-200 g) are used. The animals are kept in makralon cages with up to 5 animals per cage [room-temperature 23° C., humidity of the atmosphere 55%, fixed day/night rhythm (12/12 h), rat standard diet Altromin^R ].
Food is withdrawn from the animals 20-22 hours before the taking of the 1st blood sample. Water uptake occurs ad libitum. Blood samples are taken at intervals of 0, 2, 6 and 24 hours through puncture from the postorbital plexus.
After deproteinisation with perchloric acid, the blood glucose determination is effected by means of the enzymatic HK/G-6-POH method according to R. Richterich [Klinische Chemie, Theorie und Praxis, 3rd Edition, 1971, S. Karger Verlag, Zuerich-Basle, page 275].
For comparison, in each case a control group treated with pure solvent is also investigated.

A short description of series [2]: in vivo. As to conditions: mouse. The protocol:
3. Determination of the toxicity
The toxicity investigations were carried out on female NMRI mice (body weight 22-26 g). The animals (5 animals per dose) receive, 18 hours before the treatment, the food (Altromin®) reduced to 50 g/50 animals and water ad libitum. Various doses of the substances are administered per os or intraperitoneal (volume 20 ml/kg). The duration of observation is 7 days. The DL50, i.e. the dose at which 50% of the animals die, is determined graphically from the dose effect curve.

For series [3], the system named is isolatedly perfused rat liver. In words: Inhibition of glucose formation (from lactate and pyruvate) on the isolatedly perfused rat liver. As to conditions: for D: ID50 (inhibition of the glucose formation from lactate and pyruvate by 50%): isolatedly perfused rat liver, concentration in the perfusate. Further details: species or system Sprague-Dawley rats. The protocol: The values in column D show the concentrations (ID50 mmol/l) of the substances in the perfusate, which bring about on the isolatedly perfused rat liver an inhibition of the glucose formation from lactat and pyruvat by 50%.
2. Inhibition of Glucose Formation on the Isolatedly Perfused Rat Liver
Young male Sprague-Dawley rats (160-200 g) are used. The animals are kept as described under 1.
Food is withdrawn from the animals 20-22 hours before the operation. Water uptake occurs ad libitum. Operation and perfusion of the liver are effected according to the technique of R. Scholz et al. [Eur. J. Biochem. 38 (1973) 64-72]. As perfusion liquids, Krebs-Henseleit biocarbonate buffer (pH 7.4) is used which is saturated with an oxygen/carbon dioxide mixture (95/5) and contains 1.6 mmoles/liter L-lactates and 0.2 mmole/liter pyruvate. The perfusion liquid is pumped into the liver via a cannula introduced into the portal vein. The perfusion liquid emerging is collected via a cannula introduced into the vena cava and then taken past an oxygen electrode. The liver is perfused for about 2 hours. The test compounds are infused from the 32nd to 80th minute of the perfusion, with increasing concentrations (0.01, 0.03, 0.10 mmol/l).
Samples of the emerged perfusion liquid are collected at one-minute intervals and analysed for glucose, lactate and pyruvate according to enzymatic standard methods. The oxygen content is continuously determined by means of a platinum electrode. The check constants (ID50) stated in Table I refer to the state which exists before and after addition of the compounds; the changes caused alone through lactate and pyruvate were set at 100%.

Setting [4] is: rat, single oral administration, with reference to control group.
Setting [5] is: ip, i.p., read-out: C: LD50 (i.p.).

As usually defined, the LD50 is the dose at which mortality reaches 50%. Regarding `CN(C(=O)c1ccc(Cl)c(Cl)c1)c1ccccc1CCC(=O)O` [Serial No. 5, 3-[2-(N-methyl-3,4-dichlorobenzamido)-phenyl]-propionic acid], the “A: Change of the blood glucose concentration (maximal, with reference to control animals)” value (“A: Change” for short) in series [1] (rat) was -11%. In addition, in series [1] (setting [4]), the ED50 was 363 mg/kg. The median lethal dose (LD50) at 168 h in series [2] (po, per os, read-out: C: LD50) amounted to 1100 mg/kg.
With `CN(C(=O)c1ccc(Cl)c(Cl)c1)c1ccccc1CCCC(=O)O` [Serial No. 10, 4-[2-(N-methyl-3,4-dichlorobenzamido)-phenyl]-butyric acid], the “A: Change” value in series [1] (rat) is -17%. Moreover, the ED50 in series [1] (setting [4]) turned out to be 198 mg/kg. In addition, in series [2] (setting [5]), the median lethal dose (LD50) at 168 h amounted to 250 mg/kg.
With `CN(C(=O)c1ccc(Cl)cc1)c1ccccc1CCCC(=O)O` [Serial No. 9, 4-[2-(N-methyl-4-chlorobenzamido)-phenyl]-butyric acid], the “A: Change” value in series [1] (rat) is reported as -24%. Moreover, in series [1] (setting [4]), the ED50 amounted to 103 mg/kg. Besides, the median lethal dose (LD50) at 168 h in series [2] (po, per os, read-out: C: LD50) is greater than 1000 mg/kg.
`CN(C(=O)c1ccc(Cl)cc1Cl)c1ccccc1CCCC(=O)O` [Serial No. 11, 4-[2-(N-methyl-2,4-dichlorobenzamido)-phenyl]-butyric acid]: the “A: Change” value in series [1] (rat) is -17%. For the same molecule, the ED50 in series [1] (setting [4]) was 245 mg/kg. In addition, in series [2] (po, per os, read-out: C: LD50), the LD50 at 168 h is greater than 1000 mg/kg.
As for `CN(C(=O)c1ccccc1)c1ccccc1CCC(=O)O` [Serial No. 6, 3-[2-(N-methylbenzamido)-phenyl]-propionic acid], the “A: Change” value in series [1] (rat) is -26%. For the same molecule, the ED50 in series [1] (setting [4]) came to 221 mg/kg. The LD50 at 168 h in series [2] (po, per os, read-out: C: LD50) turned out to be 970 mg/kg.
With `CN(C(=O)c1ccc(Cl)cc1)c1ccccc1CCC(=O)O` [Serial No. 4, 3-[2-(N-methyl-4-chlorobenzamido)-phenyl]-propionic acid], the “A: Change” value in series [1] (rat) is on record as -16%. In series [1] (setting [4]), the ED50 stood at 426 mg/kg.
For `CN(C(=O)c1ccc(Cl)c(Cl)c1)c1ccccc1CCCCC(=O)O` [Serial No. 15, 5-[2-(N-methyl-3,4-dichlorobenzamido)-phenyl]-valeric acid] the same measures were -5% and greater than 700 mg/kg.
With `COc1cccc(N(C)C(=O)c2ccc(Cl)cc2)c1CCCC(=O)O` [Serial No. 13, 4-[6-methoxy-2-(N-methyl-4-chlorobenzamido)-phenyl]-butyric acid], in series [1] (rat), the “A: Change” value is on record as -14%. Moreover, the ED50 in series [1] (setting [4]) is greater than 500 mg/kg.
For `CN(C(=O)c1cccc(C(F)(F)F)c1)c1ccc(Cl)cc1CCC(=O)O` [Serial No. 8, 3-[5-chloro-2-(N-methyl-3-trifluoromethylbenzamido)-phenyl]-propionic acid], the “A: Change” value in series [1] (rat) is recorded as -26%. In addition, in series [1] (setting [4]), the ED50 amounted to 185 mg/kg. Further, the LD50 at 168 h in series [2] (po, per os, read-out: C: LD50) was greater than 1000 mg/kg.
As for `COc1ccc(N(C)C(=O)c2ccc(Cl)c(Cl)c2)c(CCCC(=O)O)c1` [Serial No. 14, 4-[5-methoxy-2-(N-methyl-3,4-dichloro-benzamido)-phenyl]-butyric acid], the “A: Change” value in series [1] (rat) is given as -21%.
On to `CN(C(=O)c1ccc(Cl)c(Cl)c1)c1ccc(Cl)cc1CCC(=O)O` [Serial No. 7, 3-[5-chloro-2-(N-methyl-3,4-dichlorobenzamido)-phenyl]-propionic acid], for which, in series [1] (rat), the “A: Change” value is -15%. The 50% lethal dose (LD50) at 168 h in series [2] (po, per os, read-out: C: LD50) was greater than 1000 mg/kg.
Regarding `CN(C(=O)c1ccccc1)c1ccccc1CCCC(=O)O` [Serial No. 3, 4-[2-(N-methylbenzamido)-phenyl]-butyric acid], the “A: Change” value in series [1] (rat) is reported as -27%. Besides, the ED50 in series [1] (setting [4]) amounted to 205 mg/kg.
For the molecule `[H]/N=C(/N)N/C(=N/[H])NCCc1ccccc1` [Serial No. 2, phenformin], the “A: Change” value in series [1] (rat) is on record as -2%. Moreover, in series [3], the “inhibition of the glucose formation from lactate and pyruvate in the liver (in words)” value was “no inhibition”; the “D: ID50 (inhibition of the glucose formation from lactate and pyruvate by 50%)” value is recorded as “ineffective”.
On to `CN(C(=O)c1cccc(C(F)(F)F)c1)c1ccccc1CCCC(=O)O` [Serial No. 12, 4-[2-(N-methyl-3-trifluoromethylbenzamido)-phenyl]-butyric acid], for which the “A: Change” value in series [1] (rat) was -20%. Also, the ED50 in series [1] (setting [4]) came to 278 mg/kg. Further, the median lethal dose (LD50) at 168 h in series [2] (setting [5]) stood at 150 mg/kg.
Consider `CCCCNC(=N)NC(=N)N` [Serial No. 1, buformin, reference compound], for which the ED50 in series [1] (Rattus norvegicus, po) is 227 mg/kg. The “A: Change” value in series [1] (rat) is -20%. In series [3], the “inhibition of the glucose formation from lactate and pyruvate in the liver (in words)” value is “no inhibition”; the “D: ID50 (inhibition of the glucose formation from lactate and pyruvate by 50%)” value was “ineffective”.
